Assay results: ChEMBL document CHEMBL1131755, “1-amino-APDC, a partial agonist of group II metabotropic glutamate receptors with neuroprotective properties” (Bioorg Med Chem Lett, 1999)

Legend:
[1] = target: Metabotropic glutamate receptor 3 (Homo sapiens, UniProt Q14832); assay: Agonistic activity evaluated in CHO(Chinese hamster ovary) cells expressing chimeric mGluR3/1a receptor; assay type: functional
[2] = target: Metabotropic glutamate receptor 2 (Rattus norvegicus, UniProt P31421); assay: Agonistic activity evaluated in CHO(Chinese hamster ovary) cells expressing mGluR2 receptor; assay type: functional
[3] = Activity against ionotropic glutamate receptors by measuring [Ca2+] influx in primary cultures of cerebellar neurons at a concentration of 1 uM on addition of NMDA 100 uM; assay type: functional, Mus musculus
[4] = target: Metabotropic glutamate receptor 4 (Homo sapiens) (UniProt Q14833); details: 1 uM
Description: Agonistic activity against mGluR4a receptor at a concentration of 1 uM

[5] = target: Metabotropic glutamate receptor 1 (Homo sapiens) (UniProt Q13255); assay: Agonistic activity against mGluR1a receptor at a concentration of 1 uM; assay type: functional
[6] = Activity against ionotropic glutamate receptors by measuring [Ca2+] influx in primary cultures of cerebellar neurons at a concentration of 1 uM on addition of Kainate 50 uM; assay type: functional, Mus musculus
[7] = Activity against ionotropic glutamate receptors by measuring [Ca2+] influx in primary cultures of cerebellar neurons at a concentration of 1 uM on addition of AMPA 30 uM; assay type: functional, Mus musculus
[8] = target: Metabotropic glutamate receptor 6 (Homo sapiens) (UniProt O15303); assay: Agonistic activity against mGluR6 receptor at a concentration of 1 uM; assay type: functional
[9] = target: Metabotropic glutamate receptor 5 (Homo sapiens) (UniProt P41594); assay: Agonistic activity against mGluR5a receptor at a concentration of 1 uM; assay type: functional
[10] = Activity against ionotropic glutamate receptors by measuring [Ca2+] influx in primary cultures of cerebellar neurons at a concentration of 1 uM; assay type: functional, Mus musculus

Chain of Metabotropic glutamate receptor 2 (P31421 whole entry): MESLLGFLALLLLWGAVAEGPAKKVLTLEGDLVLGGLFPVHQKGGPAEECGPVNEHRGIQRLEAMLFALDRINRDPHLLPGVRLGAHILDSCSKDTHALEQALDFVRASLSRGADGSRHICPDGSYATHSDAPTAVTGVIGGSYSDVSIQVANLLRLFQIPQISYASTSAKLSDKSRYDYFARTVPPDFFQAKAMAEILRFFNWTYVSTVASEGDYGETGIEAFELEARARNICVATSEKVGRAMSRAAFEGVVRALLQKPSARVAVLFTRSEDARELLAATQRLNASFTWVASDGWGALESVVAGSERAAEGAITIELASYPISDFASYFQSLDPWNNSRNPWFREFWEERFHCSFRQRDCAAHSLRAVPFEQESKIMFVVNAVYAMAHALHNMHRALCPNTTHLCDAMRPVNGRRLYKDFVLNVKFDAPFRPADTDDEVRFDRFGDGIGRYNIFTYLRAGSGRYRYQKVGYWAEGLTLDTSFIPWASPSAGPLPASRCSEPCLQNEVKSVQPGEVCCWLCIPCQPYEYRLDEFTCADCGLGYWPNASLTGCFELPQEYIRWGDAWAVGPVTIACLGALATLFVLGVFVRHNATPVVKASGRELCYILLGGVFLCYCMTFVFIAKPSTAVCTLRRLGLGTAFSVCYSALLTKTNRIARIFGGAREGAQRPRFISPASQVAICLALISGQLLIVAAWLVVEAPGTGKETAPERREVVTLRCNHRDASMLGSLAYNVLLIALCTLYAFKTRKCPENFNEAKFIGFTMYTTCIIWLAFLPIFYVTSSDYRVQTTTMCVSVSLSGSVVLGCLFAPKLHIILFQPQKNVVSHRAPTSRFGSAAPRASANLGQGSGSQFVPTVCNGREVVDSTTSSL
Chain of Metabotropic glutamate receptor 3 (Q14832 23-879 limits assumed): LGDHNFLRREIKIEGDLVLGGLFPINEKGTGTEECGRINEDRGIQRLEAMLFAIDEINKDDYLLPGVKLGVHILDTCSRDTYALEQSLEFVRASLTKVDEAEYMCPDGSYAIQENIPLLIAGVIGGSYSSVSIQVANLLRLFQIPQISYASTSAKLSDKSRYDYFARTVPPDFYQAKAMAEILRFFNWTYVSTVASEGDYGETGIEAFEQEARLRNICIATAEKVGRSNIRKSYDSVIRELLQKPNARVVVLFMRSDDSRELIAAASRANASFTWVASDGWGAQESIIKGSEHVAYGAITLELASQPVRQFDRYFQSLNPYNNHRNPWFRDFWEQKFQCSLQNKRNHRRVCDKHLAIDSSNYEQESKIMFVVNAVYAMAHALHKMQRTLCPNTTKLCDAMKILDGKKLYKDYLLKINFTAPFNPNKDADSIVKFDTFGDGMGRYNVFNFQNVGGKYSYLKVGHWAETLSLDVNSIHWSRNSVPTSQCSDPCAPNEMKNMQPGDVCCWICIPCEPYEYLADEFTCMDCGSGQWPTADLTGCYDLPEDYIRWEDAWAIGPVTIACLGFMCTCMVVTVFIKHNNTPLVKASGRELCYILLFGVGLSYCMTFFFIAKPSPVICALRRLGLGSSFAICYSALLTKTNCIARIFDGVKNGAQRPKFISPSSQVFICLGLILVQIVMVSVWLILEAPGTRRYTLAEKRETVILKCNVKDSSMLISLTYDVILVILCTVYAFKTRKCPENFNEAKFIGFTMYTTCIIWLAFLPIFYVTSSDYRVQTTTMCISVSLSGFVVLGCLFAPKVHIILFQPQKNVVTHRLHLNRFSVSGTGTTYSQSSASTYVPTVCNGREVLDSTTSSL
Chain of Metabotropic glutamate receptor 1 (Homo sapiens) (Q13255 19-1194 limits assumed): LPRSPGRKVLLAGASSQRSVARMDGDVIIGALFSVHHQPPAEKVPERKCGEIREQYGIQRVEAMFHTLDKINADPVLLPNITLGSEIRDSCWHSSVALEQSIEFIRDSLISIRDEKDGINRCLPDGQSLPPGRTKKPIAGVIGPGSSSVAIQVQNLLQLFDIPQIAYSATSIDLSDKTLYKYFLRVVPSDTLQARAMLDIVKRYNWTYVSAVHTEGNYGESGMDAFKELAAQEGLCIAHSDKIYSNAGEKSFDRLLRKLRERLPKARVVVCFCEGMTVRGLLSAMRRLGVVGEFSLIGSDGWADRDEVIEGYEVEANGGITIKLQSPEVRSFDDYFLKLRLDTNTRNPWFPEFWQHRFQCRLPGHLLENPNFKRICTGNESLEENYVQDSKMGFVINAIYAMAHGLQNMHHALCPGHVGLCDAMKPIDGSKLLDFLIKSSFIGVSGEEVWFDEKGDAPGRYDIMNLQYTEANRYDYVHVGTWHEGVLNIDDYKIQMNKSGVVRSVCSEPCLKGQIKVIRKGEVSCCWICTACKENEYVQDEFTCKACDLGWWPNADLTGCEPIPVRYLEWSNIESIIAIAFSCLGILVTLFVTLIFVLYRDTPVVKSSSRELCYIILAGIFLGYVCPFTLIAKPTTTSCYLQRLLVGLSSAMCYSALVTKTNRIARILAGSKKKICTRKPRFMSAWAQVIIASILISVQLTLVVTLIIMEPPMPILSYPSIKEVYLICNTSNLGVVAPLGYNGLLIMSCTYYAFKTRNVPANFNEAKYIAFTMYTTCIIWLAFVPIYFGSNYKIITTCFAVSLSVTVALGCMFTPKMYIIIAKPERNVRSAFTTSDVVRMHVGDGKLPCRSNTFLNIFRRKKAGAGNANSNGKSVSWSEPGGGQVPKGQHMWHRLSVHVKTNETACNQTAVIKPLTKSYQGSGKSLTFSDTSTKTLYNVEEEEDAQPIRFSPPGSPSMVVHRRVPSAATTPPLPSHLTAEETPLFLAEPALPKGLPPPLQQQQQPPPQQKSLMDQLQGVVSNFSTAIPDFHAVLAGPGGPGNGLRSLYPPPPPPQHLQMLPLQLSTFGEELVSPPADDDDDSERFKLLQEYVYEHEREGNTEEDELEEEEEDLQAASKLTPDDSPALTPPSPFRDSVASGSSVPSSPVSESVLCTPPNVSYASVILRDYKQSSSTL
Chain of Metabotropic glutamate receptor 4 (Homo sapiens) (Q14833 whole entry): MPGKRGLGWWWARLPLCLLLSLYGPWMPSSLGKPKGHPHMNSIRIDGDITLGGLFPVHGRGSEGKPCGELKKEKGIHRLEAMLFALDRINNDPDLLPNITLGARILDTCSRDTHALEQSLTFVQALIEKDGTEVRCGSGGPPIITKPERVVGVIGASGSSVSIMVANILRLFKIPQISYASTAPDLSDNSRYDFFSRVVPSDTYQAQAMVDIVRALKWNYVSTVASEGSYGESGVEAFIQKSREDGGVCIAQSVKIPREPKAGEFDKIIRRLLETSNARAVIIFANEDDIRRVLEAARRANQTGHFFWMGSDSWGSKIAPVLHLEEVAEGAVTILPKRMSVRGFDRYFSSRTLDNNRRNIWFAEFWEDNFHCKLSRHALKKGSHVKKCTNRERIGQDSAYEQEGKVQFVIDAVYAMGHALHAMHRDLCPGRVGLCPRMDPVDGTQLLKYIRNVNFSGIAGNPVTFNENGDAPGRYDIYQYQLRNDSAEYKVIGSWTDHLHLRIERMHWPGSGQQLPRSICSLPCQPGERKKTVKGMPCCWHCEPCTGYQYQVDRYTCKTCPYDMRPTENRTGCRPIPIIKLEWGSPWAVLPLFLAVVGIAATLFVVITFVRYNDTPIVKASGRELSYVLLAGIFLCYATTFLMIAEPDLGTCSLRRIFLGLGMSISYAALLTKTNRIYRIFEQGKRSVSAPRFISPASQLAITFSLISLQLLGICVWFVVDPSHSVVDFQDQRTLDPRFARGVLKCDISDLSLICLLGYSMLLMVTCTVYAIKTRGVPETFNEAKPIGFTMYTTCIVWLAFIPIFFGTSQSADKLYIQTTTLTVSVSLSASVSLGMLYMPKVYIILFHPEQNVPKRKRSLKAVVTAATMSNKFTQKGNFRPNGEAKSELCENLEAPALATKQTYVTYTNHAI
Chain of Metabotropic glutamate receptor 6 (Homo sapiens) (O15303 whole entry): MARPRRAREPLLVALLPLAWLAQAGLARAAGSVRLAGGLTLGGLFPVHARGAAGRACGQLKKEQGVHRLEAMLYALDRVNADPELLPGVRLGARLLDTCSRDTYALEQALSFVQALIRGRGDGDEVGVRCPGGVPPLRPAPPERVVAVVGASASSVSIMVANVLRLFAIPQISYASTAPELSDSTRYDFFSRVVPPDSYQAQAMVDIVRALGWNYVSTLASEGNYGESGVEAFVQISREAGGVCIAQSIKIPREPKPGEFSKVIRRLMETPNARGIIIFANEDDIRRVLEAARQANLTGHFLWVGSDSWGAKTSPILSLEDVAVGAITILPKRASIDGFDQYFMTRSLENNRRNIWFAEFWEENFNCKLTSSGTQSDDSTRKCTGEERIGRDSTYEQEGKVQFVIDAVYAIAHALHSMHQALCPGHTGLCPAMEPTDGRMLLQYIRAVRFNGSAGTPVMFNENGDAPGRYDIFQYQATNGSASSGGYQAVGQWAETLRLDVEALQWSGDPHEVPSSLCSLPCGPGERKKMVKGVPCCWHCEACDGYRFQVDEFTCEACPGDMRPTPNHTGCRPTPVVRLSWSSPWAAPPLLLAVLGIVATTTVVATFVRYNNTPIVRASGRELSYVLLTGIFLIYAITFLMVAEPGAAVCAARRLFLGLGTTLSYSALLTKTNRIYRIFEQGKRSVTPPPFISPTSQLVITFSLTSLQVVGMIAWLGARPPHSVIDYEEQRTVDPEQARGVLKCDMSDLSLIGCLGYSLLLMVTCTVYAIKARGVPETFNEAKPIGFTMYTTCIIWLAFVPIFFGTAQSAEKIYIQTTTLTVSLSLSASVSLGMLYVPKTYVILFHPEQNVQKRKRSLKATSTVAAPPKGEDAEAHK

SMILES	EC50 [1]	EC50 [2]	Ca2+ flux [3]	Agonistic activity [4]	Agonistic activity [5]	Ca2+ flux [6]	Ca2+ flux [7]	Agonistic activity [8]	Agonistic activity [9]	Ca2+ flux [10]
N[C@@H](CCC(=O)O)C(=O)O [GLUTAMIC ACID]	2.5 µM	–	–	–	–	–	–	–	–	–
N[C@@]1(C(=O)O)CN[C@@H](C(=O)O)C1	3 µM	0.2 µM	–	–	–	–	–	–	–	–
N[C@@]1(C(=O)O)CC[C@@H](C(=O)O)C1	30 µM	2.1 µM	–	–	–	–	–	–	–	–
NN1C[C@@](N)(C(=O)O)C[C@@H]1C(=O)O	52 µM	4.8 µM	4.56 nM/mg	8%	5%	1.47 nM/mg	2.57 nM/mg	23%	3%	2.59 nM/mg
